Reference: US20100135905A1, “ASSESSMENT OF CANCER SUSCEPTIBILITY TO MOLECULAR TARGETED THERAPY BY USE OF RECOMBINANT PEPTIDES” (priority 2004, published 2010)

What was measured:
[1] = system: HUVECs; experiment: Apoptotic nuclei in HUVECs, H&E staining; type: cell-based, human; details: 24 hours
Description: After a 24-hour incubation period, cells were fixed and stained with Hematoxylin and Eosin (H&E). Five high-powered fields (400×) were observed and counted for each experimental group.

[2] = system: HUVECs; experiment: Clonogenic survival of HUVECs; type: cell-based, human; details: SU11248 prior to irradiation compared to radiation alone (p<0.05)
[3] = system: tumor vasculature; experiment: Tumor vascular length density, intravital tumor vascular window; type: in vivo, mice
Description: Tumor vascular linear density was measured by use of intravital tumor vascular window. […] Five mice were treated in each of the treatment groups, and the vascular length density after treatment was quantified.

[4] = system: tumor endothelial cells; experiment: TUNEL staining of treated tumor sections; type: in vivo
[5] = system: LLC tumors; experiment: Tumor growth delay, LLC hind limb tumors; type: in vivo, mice
From the text: As disclosed herein, the induction of apoptosis correlated with the biological response in tumor blood vessels and tumor growth delay. […] Both the inhibitor and radiation were discontinued after day 8. […] Time to doubling of LLC tumor size was 5, 6, 8, and 16 days for each group, respectively.

[6] = system: LLC tumors; experiment: Tumor growth delay with SU11248, LLC tumors; type: in vivo, nude mice; details: drug alone
Description: (§1) D54 and LLC tumors were implanted into both hind limbs of nude mice as described in Example 2. Tumors were grown over the course of seven to 10 days.
(§2) In comparison, LLC tumors responded to SU11248 alone or in combination with radiation.

[7] = system: D54 tumors; experiment: Tumor growth delay with SU11248, D54 tumors; type: in vivo, nude mice; details: SU11248 alone
Description: as §1, §2

[8] = system: A431, Colo205, H460, C6 and SF763T tumors; details: regression, growth arrest or growth delay of xenografts; cited from earlier work

## CCN(CC)CCNC(=O)c1c(C)[nH]c(/C=C2\C(=O)Nc3ccc(F)cc32)c1C [SU11248]
[1]; 100 nM SU11248 alone
  Percentage of endothelial cells with apoptotic nuclei: 7%
[1]; 100 nM SU11248 followed by 6 Gy
  Percentage of endothelial cells with apoptotic nuclei: 21%
[2]
  Clonogenic survival: significant reduction in clonogenic survival
[3]; SU11248 40 mg/kg followed by 3 Gy, within 72 hours
  Vascular length density (VLD) in tumors: 8 % of that at 0 hours
[3]; SU11248 alone
  Vascular length density (VLD) in tumors: 84 % that of 0 hour
[4]; SU11248 administered prior to irradiation, tumor endothelium
  Threshold radiation dose for induction of apoptosis: 2 Gy
[4]; SU11248 alone
  TUNEL staining of tumor sections: no TUNEL staining
[4]; SU11248 followed by 3 Gy, co-localization with vWF
  TUNEL staining of tumor sections: positive TUNEL staining in endothelial cells
[5]; SU11248 40 mg/kg i.p. 30 minutes before each 3 Gy dose (21 Gy total)
  Time to doubling of LLC tumor size: 16 days
[5]; SU11248 40 mg/kg i.p. daily, seven administrations, alone
  Time to doubling of LLC tumor size: 6 days
[6]
  Tumor growth delay: showed a tumor growth delay
[7]
  Tumor growth delay: did not show tumor growth delay
[8]
  Anti-tumor activity in mice: broad and potent anti-tumor activity
